# US5840684A, “Glycopeptide antibiotic derivatives” (Eli Lilly and Company, priority 1995, dated 1998)
# Key:
# [1] = system: Staphylococcus aureus S13E; format: cell-based
# Protocol: (§1) The MIC's were determined using a standard broth micro-dilution assay.
# [2] = system: Staphylococcus aureus SA1199B; format: cell-based
# Protocol: as §1
# [3] = system: Entercoccus faecium 180-1; experiment: broth micro-dilution MIC; format: cell-based
# Protocol: as §1
# [4] = system: Entercoccus faecium 276; experiment: broth micro-dilution MIC; format: cell-based
# Protocol: as §1
# [5] = system: Staphylococcus aureus 446; experiment: broth micro-dilution MIC; format: cell-based
# Protocol: as §1
# [6] = system: Staphylococcus aureus 447; experiment: broth micro-dilution MIC; format: cell-based
# Protocol: as §1
# [7] = system: Staphylococcus aureus 489; experiment: broth micro-dilution MIC; format: cell-based
# Protocol: as §1
# [8] = system: Staphylococcus aureus SA1199A; experiment: broth micro-dilution MIC; format: cell-based
# Protocol: as §1
# [9] = system: Staphylococcus aureus SA1199; experiment: broth micro-dilution MIC; format: cell-based
# Protocol: as §1
# [10] = system: Staphylococcus aureus X400; experiment: broth micro-dilution MIC; format: cell-based
# Protocol: as §1
# [11] = system: Staphylococcus aureus X778; experiment: broth micro-dilution MIC; format: cell-based
# Protocol: as §1
# [12] = system: Streptococcus pyogenes C203; experiment: broth micro-dilution MIC; format: cell-based
# Protocol: as §1
# [13] = system: Entercoccus faecium 180; experiment: broth micro-dilution MIC; format: cell-based; conditions: Entercoccus faecium 180
# Protocol: (§2) The formula I compounds have in vitro and in vivo activity against Gram-positive pathogenic bacteria. The MIC's were determined using a standard broth micro-dilution assay.
# [14] = system: Entercoccus faecium 2041; experiment: broth micro-dilution MIC; format: cell-based; conditions: Entercoccus faecium 2041
# Protocol: as §2
# [15] = system: Enterococcus gallinarum 245; experiment: broth micro-dilution MIC; format: cell-based; conditions: Enterococcus gallinarum 245
# Protocol: as §2
# [16] = system: Staphylococcus epidermidis 270; experiment: broth micro-dilution MIC; format: cell-based
# Protocol: as §2
# [17] = system: Staphylococcus haemolyticus 105; experiment: broth micro-dilution MIC; format: cell-based
# Protocol: as §2
# [18] = system: Staphylococcus haemolyticus 415; experiment: broth micro-dilution MIC; format: cell-based
# Protocol: as §2
# [19] = system: Streptococcus pneumoniae P1; experiment: broth micro-dilution MIC; format: cell-based
# Protocol: as §2
# [20] = system: vancomycin-resistant enterococci; experiment: broth micro-dilution, mean geometric MIC; format: cell-based, Enterococcus faecium and Enterococcus faecalis; conditions: enterococci, 24-hour incubation
# [21] = system: vancomycin-susceptible enterococci; experiment: broth micro-dilution, mean geometric MIC; format: cell-based, Enterococcus faecium and Enterococcus faecalis; conditions: enterococci, 24-hour incubation
structure (smiles),measurement,setting,value
CNC(CC(C)C)C(=O)NC1C(=O)NC(CC(N)=O)C(=O)NC2C(=O)NC3C(=O)NC(C(=O)NC(C(=O)O)c4cc(O)cc(O)c4-c4cc3ccc4O)C(OC3CC(C)(N)C(O)C(C)O3)c3ccc(c(Cl)c3)Oc3cc2cc(c3OC2OC(CO)C(O)C(O)C2OC2CC(C)(NCc3ccc(O)cc3)C(O)C(C)O2)Oc2ccc(cc2Cl)C1O (stereo not shown) [Compound 136],MIC,[1],≤ 0.06 µg/mL
same,MIC,[2],≤ 0.06 µg/mL
same,MIC,[3],≤ 0.06 µg/mL
same,MIC,[4],≤ 0.06 µg/mL
same,MIC,[5],≤ 0.06 µg/mL
same,MIC,[6],2 µg/mL
same,MIC,[7],≤ 0.06 µg/mL
same,MIC,[8],≤ 0.06 µg/mL
same,MIC,[9],≤ 0.06 µg/mL
same,MIC,[10],≤ 0.06 µg/mL
same,MIC,[11],≤ 0.06 µg/mL
same,MIC,[12],≤ 0.06 µg/mL
same,MIC,[13],2 µg/mL
same,MIC,[14],≤ 0.06 µg/mL
same,MIC,[15],4 µg/mL
same,MIC,[16],1 µg/mL
same,MIC,[17],2 µg/mL
same,MIC,[18],4 µg/mL
same,MIC,[19],≤ 0.06 µg/mL
same,"mean geometric MIC, Vancomycin Resistant Strains",[20],23 µg/mL
same,"mean geometric MIC, Vancomycin Sensitive Strains",[21],0.76 µg/mL
CNC(CC(C)C)C(=O)NC1C(=O)NC(CC(N)=O)C(=O)NC2C(=O)NC3C(=O)NC(C(=O)NC(C(=O)O)c4cc(O)cc(O)c4-c4cc3ccc4O)C(OC3CC(C)(N)C(O)C(C)O3)c3ccc(c(Cl)c3)Oc3cc2cc(c3OC2OC(CO)C(O)C(O)C2OC2CC(C)(NCc3sccc3-c3cccs3)C(O)C(C)O2)Oc2ccc(cc2Cl)C1O (stereo not shown) [Compound 238],MIC,[1],0.125 µg/mL
same,MIC,[2],0.5 µg/mL
same,MIC,[3],≤ 0.06 µg/mL
same,MIC,[4],≤ 0.06 µg/mL
same,MIC,[5],1 µg/mL
same,MIC,[6],0.5 µg/mL
same,MIC,[7],0.5 µg/mL
same,MIC,[8],≤ 0.06 µg/mL
same,MIC,[9],0.5 µg/mL
same,MIC,[10],1 µg/mL
same,MIC,[11],0.5 µg/mL
same,MIC,[12],≤ 0.06 µg/mL
same,MIC,[13],0.125 µg/mL
same,MIC,[14],≤ 0.06 µg/mL
same,MIC,[15],≤ 0.06 µg/mL
same,MIC,[16],0.5 µg/mL
same,MIC,[17],0.5 µg/mL
same,MIC,[18],2 µg/mL
same,MIC,[19],≤ 0.06 µg/mL
same,"mean geometric MIC, Vancomycin Resistant Strains",[20],1.4 µg/mL
same,"mean geometric MIC, Vancomycin Sensitive Strains",[21],0.14 µg/mL
C=CCCCCNC1(C)CC(OC2C(Oc3c4cc5cc3Oc3ccc(cc3Cl)C(OC3CC(C)(N)C(O)C(C)O3)C3NC(=O)C(NC(=O)C5NC(=O)C(CC(N)=O)NC(=O)C(NC(=O)C(CC(C)C)NC)C(O)c5ccc(c(Cl)c5)O4)c4ccc(O)c(c4)-c4c(O)cc(O)cc4C(C(=O)O)NC3=O)OC(CO)C(O)C2O)OC(C)C1O (stereo not shown) [Compound 217],MIC,[1],≤ 0.06 µg/mL
same,MIC,[2],0.125 µg/mL
same,MIC,[3],≤ 0.06 µg/mL
same,MIC,[4],≤ 0.06 µg/mL
same,MIC,[6],1 µg/mL
same,MIC,[7],≤ 0.06 µg/mL
same,MIC,[8],≤ 0.06 µg/mL
same,MIC,[9],≤ 0.06 µg/mL
same,MIC,[10],≤ 0.06 µg/mL
same,MIC,[11],≤ 0.06 µg/mL
same,MIC,[12],≤ 0.06 µg/mL
same,MIC,[13],2 µg/mL
same,MIC,[14],≤ 0.06 µg/mL
same,MIC,[15],8 µg/mL
same,MIC,[16],0.5 µg/mL
same,MIC,[17],2 µg/mL
same,MIC,[18],8 µg/mL
same,MIC,[19],≤ 0.06 µg/mL
same,"mean geometric MIC, Vancomycin Resistant Strains",[20],13 µg/mL
same,"mean geometric MIC, Vancomycin Sensitive Strains",[21],0.57 µg/mL
CNC(CC(C)C)C(=O)NC1C(=O)NC(CC(N)=O)C(=O)NC2C(=O)NC3C(=O)NC(C(=O)NC(C(=O)O)c4cc(O)cc(O)c4-c4cc3ccc4O)C(OC3CC(C)(N)C(O)C(C)O3)c3ccc(c(Cl)c3)Oc3cc2cc(c3OC2OC(CO)C(O)C(O)C2OC2CC(C)(NCc3cccc(OC(C)=O)c3)C(O)C(C)O2)Oc2ccc(cc2Cl)C1O (stereo not shown) [Compound 77],MIC,[1],0.125 µg/mL
same,MIC,[2],0.125 µg/mL
same,MIC,[3],0.125 µg/mL
same,MIC,[4],0.25 µg/mL
same,MIC,[5],≤ 0.06 µg/mL
same,MIC,[6],1 µg/mL
same,MIC,[7],≤ 0.06 µg/mL
same,MIC,[8],≤ 0.06 µg/mL
same,MIC,[9],≤ 0.06 µg/mL
same,MIC,[10],≤ 0.06 µg/mL
same,MIC,[11],≤ 0.06 µg/mL
same,MIC,[12],≤ 0.06 µg/mL
same,MIC,[13],8 µg/mL
same,MIC,[14],0.25 µg/mL
same,MIC,[15],0.25 µg/mL
same,MIC,[16],0.5 µg/mL
same,MIC,[17],2 µg/mL
same,MIC,[18],8 µg/mL
same,MIC,[19],≤ 0.06 µg/mL
CNC(CC(C)C)C(=O)NC1C(=O)NC(CC(N)=O)C(=O)NC2C(=O)NC3C(=O)NC(C(=O)NC(C(=O)O)c4cc(O)cc(O)c4-c4cc3ccc4O)C(OC3CC(C)(N)C(O)C(C)O3)c3ccc(c(Cl)c3)Oc3cc2cc(c3OC2OC(CO)C(O)C(O)C2OC2CC(C)(NCc3ccc(-c4ccccn4)cc3)C(O)C(C)O2)Oc2ccc(cc2Cl)C1O (stereo not shown) [Compound 137],MIC,[1],≤ 0.06 µg/mL
same,MIC,[2],≤ 0.06 µg/mL
same,MIC,[3],≤ 0.06 µg/mL
same,MIC,[4],≤ 0.06 µg/mL
same,MIC,[6],4 µg/mL
same,MIC,[7],≤ 0.06 µg/mL
same,MIC,[8],≤ 0.06 µg/mL
same,MIC,[9],≤ 0.06 µg/mL
same,MIC,[10],≤ 0.06 µg/mL
same,MIC,[11],≤ 0.06 µg/mL
same,MIC,[12],≤ 0.06 µg/mL
same,MIC,[13],0.125 µg/mL
same,MIC,[14],≤ 0.06 µg/mL
same,MIC,[15],8 µg/mL
same,MIC,[16],0.5 µg/mL
same,MIC,[17],2 µg/mL
same,MIC,[18],8 µg/mL
same,MIC,[19],≤ 0.06 µg/mL
same,"mean geometric MIC, Vancomycin Resistant Strains",[20],6.7 µg/mL
same,"mean geometric MIC, Vancomycin Sensitive Strains",[21],0.38 µg/mL
CNC(CC(C)C)C(=O)NC1C(=O)NC(CC(N)=O)C(=O)NC2C(=O)NC3C(=O)NC(C(=O)NC(C(=O)O)c4cc(O)cc(O)c4-c4cc3ccc4O)C(OC3CC(C)(N)C(O)C(C)O3)c3ccc(c(Cl)c3)Oc3cc2cc(c3OC2OC(CO)C(O)C(O)C2OC2CC(C)(NCC3CCC(Cc4ccccc4)CC3)C(O)C(C)O2)Oc2ccc(cc2Cl)C1O (stereo not shown) [Compound 241],MIC,[2],1 µg/mL
same,MIC,[3],≤ 0.06 µg/mL
same,MIC,[4],≤ 0.06 µg/mL
same,MIC,[5],0.5 µg/mL
same,MIC,[6],1 µg/mL
same,MIC,[7],0.5 µg/mL
same,MIC,[8],≤ 0.06 µg/mL
same,MIC,[9],1 µg/mL
same,MIC,[10],0.5 µg/mL
same,MIC,[11],1 µg/mL
same,MIC,[12],≤ 0.06 µg/mL
same,MIC,[13],≤ 0.06 µg/mL
same,MIC,[14],≤ 0.06 µg/mL
same,MIC,[15],≤ 0.06 µg/mL
same,MIC,[16],0.5 µg/mL
same,MIC,[17],1 µg/mL
same,MIC,[18],1 µg/mL
same,MIC,[19],≤ 0.06 µg/mL
same,"mean geometric MIC, Vancomycin Resistant Strains",[20],1.4 µg/mL
same,"mean geometric MIC, Vancomycin Sensitive Strains",[21],0.048 µg/mL
CNC(CC(C)C)C(=O)NC1C(=O)NC(CC(N)=O)C(=O)NC2C(=O)NC3C(=O)NC(C(=O)NC(C(=O)O)c4cc(O)cc(O)c4-c4cc3ccc4O)C(OC3CC(C)(N)C(O)C(C)O3)c3ccc(cc3)Oc3cc2cc(c3OC2OC(CO)C(O)C(O)C2OC2CC(C)(NCc3ccc(-c4ccccc4)cc3)C(O)C(C)O2)Oc2ccc(cc2)C1O (stereo not shown) [Compound 183],MIC,[1],≤ 0.06 µg/mL
same,MIC,[2],≤ 0.06 µg/mL
same,MIC,[3],≤ 0.06 µg/mL
same,MIC,[5],≤ 0.06 µg/mL
same,MIC,[6],≤ 0.06 µg/mL
same,MIC,[7],≤ 0.06 µg/mL
same,MIC,[8],≤ 0.06 µg/mL
same,MIC,[9],≤ 0.06 µg/mL
same,MIC,[10],≤ 0.06 µg/mL
same,MIC,[11],≤ 0.06 µg/mL
same,MIC,[12],≤ 0.06 µg/mL
same,MIC,[13],2 µg/mL
same,MIC,[14],≤ 0.06 µg/mL
same,MIC,[15],0.5 µg/mL
same,MIC,[16],≤ 0.06 µg/mL
same,MIC,[17],≤ 0.06 µg/mL
same,MIC,[18],≤ 0.06 µg/mL
same,MIC,[19],≤ 0.06 µg/mL
same,"mean geometric MIC, Vancomycin Resistant Strains",[20],23 µg/mL
same,"mean geometric MIC, Vancomycin Sensitive Strains",[21],0.130 µg/mL
CNC(CC(C)C)C(=O)NC1C(=O)NC(CC(N)=O)C(=O)NC2C(=O)NC3C(=O)NC(C(=O)NC(C(=O)O)c4cc(O)cc(O)c4-c4cc3ccc4O)C(OC3CC(C)(N)C(O)C(C)O3)c3ccc(c(Cl)c3)Oc3cc2cc(c3OC2OC(CO)C(O)C(O)C2OC2CC(C)(NCc3ccc(Oc4ccc(OC)cc4)cc3)C(O)C(C)O2)Oc2ccc(cc2Cl)C1O (stereo not shown) [Compound 98],MIC,[1],0.5 µg/mL
same,MIC,[2],1 µg/mL
same,MIC,[3],≤ 0.06 µg/mL
same,MIC,[4],0.125 µg/mL
same,MIC,[5],0.5 µg/mL
same,MIC,[7],≤ 0.06 µg/mL
same,MIC,[8],≤ 0.06 µg/mL
same,MIC,[9],0.5 µg/mL
same,MIC,[10],≤ 0.06 µg/mL
same,MIC,[11],≤ 0.06 µg/mL
same,MIC,[12],≤ 0.06 µg/mL
same,MIC,[14],≤ 0.06 µg/mL
same,MIC,[15],1 µg/mL
same,MIC,[16],≤ 0.06 µg/mL
same,MIC,[17],1 µg/mL
same,MIC,[18],1 µg/mL
same,MIC,[19],≤ 0.06 µg/mL
same,"mean geometric MIC, Vancomycin Resistant Strains",[20],2.4 µg/mL
same,"mean geometric MIC, Vancomycin Sensitive Strains",[21],0.095 µg/mL
